In US20250032485A1, “APPLICATION OF IMIDAZO [1,2-A] PYRAZINE COMPOUNDS OR THEIR PHARMACEUTICALLY ACCEPTABLE SALTS IN THE PREPARATION OF ANTI-CORONAVIRUS DRUGS” (GUANGZHOU MEDICAL UNIVERSITY, priority 2023, published 2025):

What follows are compounds tested against PLpro of SARS-CoV-2 (Severe acute respiratory syndrome coronavirus 2, UniProt P0DTD1) (assay: Enzyme activity test in vitro: inhibition of PLpro at fixed concentration 50 μM (RLRGG-AMC substrate)). Conditions: read-out: Inhibition rate at 50 μM (%).
Assay type: biochemical

Compared with `CSc1ccc(-c2nc3cnccn3c2Nc2cccc(C(=O)NCCN(C)C)c2)cc1` [P22467, N-[2-(dimethylamino)ethyl]-3-[[2-(4-methylsulfanylphenyl)imidazo[1,2-a]pyrazin-3-yl]amino] benzamide], `CCNC(=O)c1cccc(Nc2c(-c3ccc(OC)cc3)nc3cnccn23)c1` [P28734, N-ethyl-3-[[2-(4-methoxyphenyl)imidazo[1,2-a]pyrazin-3-yl]amino]benzamide] is higher in inhibition at 50 µM: 29.8% for the first, 41% for the second.

Going from `O=C(c1cccc(Nc2c(-c3ccc(Cl)cc3)nc3cnccn23)c1)N1CCCCC1` [P22468, [3-[[2-(4-chlorophenyl)imidazo[1,2-a]pyrazin-3-yl]amino]phenyl]-piperidin-1-ylmethanone] to `CSc1ccc(-c2nc3cnccn3c2Nc2cccc(C(=O)N3CCCCC3)c2)cc1` [P22478, [3-[[2-(4-methyl-sulfanylphenyl)imidazo [1,2-a]pyrazin-3-yl]amino]phenyl]-piperidin-1-ylmethanone], the inhibition at 50 µM rises from 29% to 43.9%.

Compared with `O=C(NCc1ccco1)c1cccc(Nc2c(-c3ccc(Cl)cc3)nc3cnccn23)c1` [P22469, 3-[[2-(4-chlorophenyl)imidazo[1,2-a]pyrazin-3-yl]amino]-N-(furan-2-ylmethyl) benzamide], `COc1ccc(-c2nc3cnccn3c2Nc2ccc(C(=O)NCc3ccco3)cc2)cc1OC` [P22480, 4-[[2-(3,4-dimethoxy-phenyl)imidazo[1,2-a]pyrazin-3-yl]amino]-N-(furan-2-ylmethyl)benzamide] is higher in inhibition at 50 µM: 40.5% for the first, 40.6% for the second.

First: COc1ccc(-c2nc3cnccn3c2Nc2ccc(C(=O)N3CCOCC3)cc2)cc1OC [P22470, [4-[[2-(3,4-dimethoxy-phenyl)imidazo[1,2-a]pyrazin-3-yl]amino]phenyl]-morpholin-4-ylmethanone]
Second: O=C(c1ccc(Nc2c(-c3ccccc3)nc3cnccn23)cc1)N1CCOCC1 [P22474, morpholin-4-yl-[4-[(2-phenylimidazo [1,2-a]pyrazin-3-yl)amino]phenyl] methanone]
The inhibition at 50 µM of the first is lower: 32.1% for the first, 35.3% for the second.

Going from `O=C(NCCN1CCOCC1)c1ccc(Nc2c(-c3ccccc3)nc3cnccn23)cc1` [P22472, N-(2-morpholin-4-ylethyl)-4-[(2-phenyl-imidazo[1,2-a]pyrazin-3-yl)amino] benzamide] to `O=C(O)c1ccc(Nc2c(-c3ccc(N4CCOCC4)cc3)nc3cnccn23)cc1` [P24813, 4-[[2-(4-morpholin-4-ylphenyl)imidazo [1,2-a]pyrazin-3-yl]amino]benzoic acid], the inhibition at 50 µM falls from 33% to 31.9%.

First: COc1ccc(-c2nc3cnccn3c2Nc2ccc(C(=O)NCC3CCCO3)cc2)cc1 (stereo not shown) [P22473, 4-[[2-(4-methoxy-phenyl)imidazo[1,2-a]pyrazin-3-yl]amino]-N-(oxolan-2-ylmethyl) benzamide]
Second: COC(=O)c1ccc(-c2nc3cnccn3c2Nc2ccc(OC)cc2)cc1 [P28376, methyl 4-[3-(4-methoxy-anilino)imidazo[1,2-a]pyrazin-2-yl]benzoate]
The inhibition at 50 µM of the first is higher: 36.8% for the first, 28.5% for the second.

First: CC(C)NC(=O)c1cccc(Nc2c(-c3ccccc3)nc3cnccn23)c1 [P22476, 3-[(2-phenylimidazo [1,2-a]pyrazin-3-yl)amino]-N-propan-2-ylbenzamide]
Second: O=C(NCC1CCCO1)c1cccc(Nc2c(-c3ccccc3)nc3cnccn23)c1 (stereo not shown) [P22477, N-(oxolan-2-ylmethyl)-3-[(2-phenylimidazo [1,2-a]pyrazin-3-yl)amino]benzamide]
The inhibition at 50 µM of the first is lower: 29% for the first, 41% for the second.

First: O=C(NC1CCCCC1)c1cccc(Nc2c(-c3ccc(F)cc3)nc3cnccn23)c1 [P22481, N-cyclohexyl-3-[[2-(4-fluorophenyl)imidazo[1,2-a]pyrazin-3-yl]amino] benzamide]
Second: O=C(O)c1cccc(Nc2c(-c3ccc(N4CCOCC4)cc3)nc3cnccn23)c1 [P24833, 3-[[2-(4-morpholin-4-ylphenyl)imidazo [1,2-a]pyrazin-3-yl]amino]benzoic acid]
The inhibition at 50 µM of the first is lower: 11.8% for the first, 35.1% for the second.

First: CCOC(=O)c1ccc(Nc2c(-c3ccc(C)cc3)nc3cnccn23)cc1 [P22482, ethyl 4-[[2-(4-methylphenyl)imidazo[1,2-a]pyrazin-3-yl]amino] benzoate]
Second: CCOC(=O)c1ccc(Nc2c(-c3ccc(Cl)cc3)nc3cnccn23)cc1 [P22492, ethyl 4-[[2-(4-chlorophenyl)imidazo[1,2-a]pyrazin-3-yl]amino] benzoate]
The inhibition at 50 µM of the first is lower: 22.2% for the first, 29.5% for the second.

Going from `CCOC(=O)c1ccc(Nc2c(-c3ccccc3)nc3cnccn23)cc1` [P22483, ethyl 4-[(2-phenylimidazo [1,2-a]pyrazin-3-yl)amino]benzoate] to `CCOC(=O)c1ccc(Nc2c(-c3ccccc3O)nc3cnccn23)cc1` [P22512, ethyl 4-[[2-(2-hydroxy-phenyl)imidazo[1,2-a]pyrazin-3-yl]amino] benzoate], the inhibition at 50 µM falls from 29.4% to 26.9%.

Compared with `COC(=O)c1ccc(-c2nc3cnccn3c2Nc2ccc(OC)c(OC)c2)cc1` [P22491, methyl 4-[3-(3,4-dimethoxy-anilino)imidazo[1,2-a]pyrazin-2-yl] benzoate], `COC(=O)c1ccc(-c2nc3cnccn3c2Nc2ccc3c(c2)OCO3)cc1` [P24872, methyl 4-[3-(1,3-benzodioxol-5-ylamino)imidazo [1,2-a]pyrazin-2-yl]benzoate] is higher in inhibition at 50 µM: 22.4% for the first, 27.2% for the second.

Compared with `O=C(O)c1ccc(Nc2c(-c3cccc(Cl)c3)nc3cnccn23)cc1` [P22493, 4-[[2-(3-chlorophenyl)imidazo[1,2-a]pyrazin-3-yl]amino] benzoic acid], `CCOC(=O)c1ccc(Nc2c(-c3cccc(Cl)c3)nc3cnccn23)cc1` [P22522, ethyl 4-[[2-(3-chlorophenyl)imidazo[1,2-a]pyrazin-3-yl]amino] benzoate] is higher in inhibition at 50 µM: 13.2% for the first, 32.3% for the second.

Going from `CCc1cccc(C)c1Nc1c(-c2ccc(C(=O)NC)cc2)nc2cnccn12` [P22501, 4-[3-(2-ethyl-6-methyl-anilino)imidazo [1,2-a]pyrazin-2-yl]-N-methyl-benzamide] to `CCNC(=O)c1ccc(-c2nc3cnccn3c2Nc2c(C)cccc2CC)cc1` [P22511, N-ethyl-4-[3-(2-ethyl-6-methylanilino)imidazo[1,2-a]pyrazin-2-yl]benzamide], the inhibition at 50 µM falls from 28.7% to 27.7%.

First: CCOC(=O)c1ccc(Nc2c(-c3ccc(N(C)C)cc3)nc3cnccn23)cc1 [P22502, ethyl 4-[[2-[4-(dimethyl-amino)phenyl]imidazo [1,2-a]pyrazin-3-yl]amino]benzoate]
Second: CCOC(=O)c1ccc(Nc2c(-c3ccc(OC)cc3)nc3cnccn23)cc1 [P22531, ethyl 4-[[2-(4-methoxy-phenyl)imidazo[1,2-a]pyrazin-3-yl]amino] benzoate]
The inhibition at 50 µM of the first is lower: 14.4% for the first, 31.9% for the second.

Going from `O=C(O)c1ccc(Nc2c(-c3cc(Br)ccc3O)nc3cnccn23)cc1` [P22503, 4-[[2-(5-bromo-2-hydroxyphenyl)imidazo [1,2-a]pyrazin-3-yl]amino]benzoic acid] to `CCOC(=O)c1ccc(Nc2c(-c3cc(Br)ccc3O)nc3cnccn23)cc1` [P22542, ethyl 4-[[2-(5-bromo-2-hydroxyphenyl)imidazo [1,2-a]pyrazin-3-yl]amino]benzoate], the inhibition at 50 µM rises from 27.6% to 31.5%.

Going from `CCc1cccc(C)c1Nc1c(-c2ccc(NC(C)=O)cc2)nc2cnccn12` [P22513, N-[4-[3-(2-ethyl-6-methylanilino)imidazo [1,2-a]pyrazin-2-yl]phenyl]acetamide] to `CCOC(=O)c1ccc(Nc2c(-c3cccc(O)c3)nc3cnccn23)cc1` [P22552, ethyl 4-[[2-(3-hydroxy-phenyl)imidazo[1,2-a]pyrazin-3-yl]amino] benzoate], the inhibition at 50 µM falls from 21.9% to 19.9%.

First: CCOC(=O)c1ccc(Nc2c(-c3ccc(C(=O)OC)cc3)nc3cnccn23)cc1 [P22521, methyl 4-[3-(4-ethoxy-carbonylanilino)imidazo[1,2-a]pyrazin-2-yl]benzoate]
Second: CCOC(=O)c1ccc(Nc2c(-c3ccc(SC)cc3)nc3cnccn23)cc1 [P22541, ethyl 4-[[2-(4-methyl-sulfanylphenyl)imidazo [1,2-a]pyrazin-3-yl]amino]benzoate]
The inhibition at 50 µM of the first is lower: 22% for the first, 33.8% for the second.

First: CCOC(=O)c1ccc(Nc2c(-c3cccc(Br)c3)nc3cnccn23)cc1 [P22532, ethyl 4-[[2-(3-bromophenyl)imidazo[1,2-a]pyrazin-3-yl]amino] benzoate]
Second: CCOC(=O)c1ccc(Nc2c(-c3ccc(O)c(OC)c3)nc3cnccn23)cc1 [P22551, ethyl 4-[[2-(4-hydroxy-3-methoxyphenyl)imidazo[1,2-a]pyrazin-3-yl]amino]benzoate]
The inhibition at 50 µM of the first is higher: 24.2% for the first, 21% for the second.

Compared with `COC(=O)c1ccc(-c2nc3cnccn3c2NC2CCCCC2)cc1` [P24359, methyl 4-[3-(cyclohexylamino)imidazo[1,2-a]pyrazin-2-yl]benzoate], `COC(=O)c1ccc(-c2nc3cnccn3c2Nc2ccc3c(c2)OCCO3)cc1` [P24862, methyl 4-[3-(2,3-dihydro-1,4-benzodioxin-6-ylamino)imidazo[1,2-a]pyrazin-2-yl] benzoate] is lower in inhibition at 50 µM: 37.1% for the first, 30.1% for the second.

Compared with `CCOC(=O)c1ccc(Nc2c(-c3ccc(N4CCOCC4)cc3)nc3cnccn23)cc1` [P24803, ethyl 4-[[2-(4-morpholin-4-ylphenyl)imidazo [1,2-a]pyrazin-3-yl]amino]benzoate], `COC(=O)c1cccc(Nc2c(-c3ccc([N+](=O)[O-])cc3)nc3cnccn23)c1` [P24823, methyl 3-[[2-(4-nitrophenyl)imidazo[1,2-a]pyrazin-3-yl]amino] benzoate] is higher in inhibition at 50 µM: 24.7% for the first, 31.2% for the second.

First: COc1ccc(-c2nc3cnccn3c2Nc2ccc3c(c2)OCCO3)cc1OC [P24852, N-(2,3-dihydro-1,4-benzodioxin-6-yl)-2-(3,4-dimethoxy-phenyl)imidazo[1,2-a]pyrazin-3-amine]
Second: Fc1ccc(-c2nc3cnccn3c2Nc2ccc3c(c2)OCO3)cc1 [P28366, N-(1,3-benzodioxol-5-yl)-2-(4-fluoro-phenyl)imidazo[1,2-a]pyrazin-3-amine]
The inhibition at 50 µM of the first is lower: 24.9% for the first, 36.3% for the second.

For `Cc1cccc(C)c1Nc1c(-c2ccccc2)nc2cnccn12` [P32333, N-(2,6-dimethylphenyl)-2-phenylimidazo [1,2-a]pyrazin-3-amine], the inhibition at 50 µM was 35.8%.
